This is an account of results in patent US12202818B2, “Compounds and methods for CD73 modulation and indications therefor” (Opna Bio SA, priority 2020, dated 2025).

The target of test [1] is T1, Human CD73 (amino acid residues 27-549) (Homo sapiens, UniProt P21589).
T1 construct: Human CD73 (amino acid residues 27-549); His tag (N); made in house; host or cells: E. coli
T1 sequence (P21589 27-549): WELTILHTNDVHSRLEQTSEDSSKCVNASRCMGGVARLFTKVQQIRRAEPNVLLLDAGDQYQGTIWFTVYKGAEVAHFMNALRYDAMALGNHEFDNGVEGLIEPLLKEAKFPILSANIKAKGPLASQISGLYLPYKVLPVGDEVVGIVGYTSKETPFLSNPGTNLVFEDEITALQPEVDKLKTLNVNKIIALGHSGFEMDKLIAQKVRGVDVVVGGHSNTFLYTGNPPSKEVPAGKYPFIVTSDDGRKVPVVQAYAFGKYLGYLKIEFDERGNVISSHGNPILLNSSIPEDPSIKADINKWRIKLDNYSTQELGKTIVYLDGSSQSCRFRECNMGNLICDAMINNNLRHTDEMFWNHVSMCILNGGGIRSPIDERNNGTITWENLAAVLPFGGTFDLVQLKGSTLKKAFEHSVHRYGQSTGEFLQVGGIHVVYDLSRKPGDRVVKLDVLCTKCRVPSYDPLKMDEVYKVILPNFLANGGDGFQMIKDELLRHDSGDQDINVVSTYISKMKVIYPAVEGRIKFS
The test is described as follows: CD73 enzymatic assay (luciferase-based indirect assay, CellTiter-Glo). Particulars: 0.4 nM CD73, 150 μM AMP, 1 hour at room temperature. It counts as biochemical. The procedure, abridged:
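N-His human CD73 (27-549) expressed in E. coli, 0.4 nM, incubated with 150 μM AMP and compound in 50 mM HEPES pH 7.4, 0.01% Tween-20, 1 h at RT. Remaining AMP read via CellTiter-Glo luminescence with 1 μM ATP after 30 min; IC50 from nonlinear regression of % inhibition.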

Another test concerns the target T2, human CD73 (Homo sapiens, UniProt P21589).
T2 construct: expressed in transfected cells
T2 sequence (P21589 27-549): T1 sequence (P21589 27-549)
The test is described as follows: Inhibitor activity against CD73 in cell based assay (CD73 expressing CHO-K1 cells). The conditions noted are these: CHO-K1 cells expressing human CD73, 150 μM AMP, 4 hours of incubation; read-out: CHO-K1 CELL_VARIANT: CD73 IC50. The procedure, abridged:
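Stable human CD73 CHO-K1 cells, 1×10^4/well, exposed to an 8-point 1:3 compound series (top 10 μM, 0.2% DMSO) plus 150 μM AMP for 4 h. Remaining AMP in the supernatant was read by CellTiter-Glo 2.0 luminescence with 1 μM ATP after 30 min at room temperature. IC50 came from nonlinear regression of % inhibition against cell and media-only controls.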

Molecules are shown by their SMILES.

Consider `Cc1cc(S(C)(=O)=O)ccc1-c1ccnc(O[C@@H]2CCN(c3cn[nH]c(=O)c3Cl)C2)c1` [P-0081, (R)-4-chloro-5-(3-((4-(2-methyl-4-(methylsulfonyl)phenyl)pyridin-2-yl)oxy)pyrrolidin-1-yl)pyridazin-3(2H)-one], for which the 50% inhibitory concentration (IC50) (in test [1]; on human CD73) was 0.001 to 10 µM each time.

As to `O=c1[nH]ncc(N2CC[C@@H](Oc3cc(N4CCC5(CC4)COC5)ccn3)C2)c1Cl` [P-0082, (R)-5-(3-((4-(2-oxa-7-azaspiro[3.5]nonan-7-yl)pyridin-2-yl)oxy)pyrrolidin-1-yl)-4-chloropyridazin-3(2H)-one], the IC50 (in test [1]; at human CD73) was 0.001 to 10 µM throughout.

As to `O=c1[nH]ncc(N2CC[C@@H](Oc3cc(N4CCC(CO)(CCl)CC4)ccn3)C2)c1Cl` [P-0083, (R)-4-chloro-5-(3-((4-(4-(chloromethyl)-4-(hydroxymethyl)piperidin-1-yl)pyridin-2-yl)oxy)pyrrolidin-1-yl)pyridazin-3(2H)-one], the IC50 (in test [1]; at human CD73) was 0.001 to 10 µM throughout.

As to `O=c1[nH]ncc(N2CC[C@@H](Oc3cc(C4=CCCC4)ccn3)C2)c1Cl` [P-0084, (R)-4-chloro-5-(3-((4-(cyclopent-1-en-1-yl)pyridin-2-yl)oxy)pyrrolidin-1-yl)pyridazin-3(2H)-one], the IC50 (in test [1]; at human CD73) was 0.001 to 10 µM each time.

Take `O=c1[nH]ncc(N2CC[C@@H](Oc3cc(C4CCCCC4)ccn3)C2)c1Cl` [P-0085, (R)-4-chloro-5-(3-((4-cyclohexylpyridin-2-yl)oxy)pyrrolidin-1-yl)pyridazin-3(2H)-one]: the concentration for half-maximal inhibition (IC50) (in test [1]; on human CD73) was 0.001 to 10 µM throughout.

With `Cc1nn(CC2CCO2)c(C)c1-c1ccnc(O[C@@H]2CCN(c3cn[nH]c(=O)c3Cl)C2)c1` (stereo partly drawn) [P-0086, 4-chloro-5-((3R)-3-((4-(3,5-dimethyl-1-(oxetan-2-ylmethyl)-1H-pyrazol-4-yl)pyridin-2-yl)oxy)pyrrolidin-1-yl)pyridazin-3(2H)-one], the 50% inhibitory concentration (IC50) (in test [1]; at human CD73) was 0.001 to 10 µM each time.

Turning to `Cc1nn(CC2COC2)c(C)c1-c1ccnc(O[C@@H]2CCN(c3cn[nH]c(=O)c3Cl)C2)c1` [P-0087, (R)-4-chloro-5-(3-((4-(3,5-dimethyl-1-(oxetan-3-ylmethyl)-1H-pyrazol-4-yl)pyridin-2-yl)oxy)pyrrolidin-1-yl)pyridazin-3(2H)-one], the IC50 (in test [1]; at human CD73) was 0.001 to 10 µM in each case.

As to `Cc1nn(C(CO)CI)c(C)c1-c1ccnc(O[C@@H]2CCN(c3cn[nH]c(=O)c3Cl)C2)c1` (stereo partly drawn) [P-0088, 4-chloro-5-((3R)-3-((4-(1-(1-hydroxy-3-iodopropan-2-yl)-3,5-dimethyl-1H-pyrazol-4-yl)pyridin-2-yl)oxy)pyrrolidin-1-yl)pyridazin-3(2H)-one], the IC50 (in test [1]; on human CD73) was 0.001 to 10 µM throughout.

In the case of `Cc1nn(C)c(C)c1-c1cc(O[C@@H]2CCN(c3cn[nH]c(=O)c3Cl)C2)nc(N)n1` [P-0089, (R)-5-(3-((2-amino-6-(1,3,5-trimethyl-1H-pyrazol-4-yl)pyrimidin-4-yl)oxy)pyrrolidin-1-yl)-4-chloropyridazin-3(2H)-one], the concentration for half-maximal inhibition (IC50) (in test [1]; at human CD73) was 0.001 to 10 µM each time.

As for `Cc1noc(C)c1-c1ccnc(O[C@@H]2CCN(c3cnn(CCCO)c(=O)c3Cl)C2)c1` [P-0090, (R)-4-chloro-5-(3-((4-(3,5-dimethylisoxazol-4-yl)pyridin-2-yl)oxy)pyrrolidin-1-yl)-2-(3-hydroxypropyl)pyridazin-3(2H)-one], the half-inhibitory concentration (IC50) (in test [1]; on human CD73) was 0.001 to 10 µM throughout.

On to `N#CC1CCC(c2ccnc(O[C@@H]3CCN(c4cn[nH]c(=O)c4Cl)C3)c2)CC1` (stereo partly drawn) [P-0091, (R)-4-(2-((1-(5-chloro-6-oxo-1,6-dihydropyridazin-4-yl)pyrrolidin-3-yl)oxy)pyridin-4-yl)cyclohexane-1-carbonitrile], for which the IC50 (in test [1]; on human CD73) was 0.001 to 10 µM throughout.

`CC1COCCN1c1ccnc(O[C@@H]2CCN(c3cn[nH]c(=O)c3Cl)C2)c1` (stereo partly drawn) [P-0092, 4-chloro-5-((3R)-3-((4-(3-methylmorpholino)pyridin-2-yl)oxy)pyrrolidin-1-yl)pyridazin-3(2H)-one]: the 50% inhibitory concentration (IC50) (in test [1]; on human CD73) was 0.001 to 10 µM each time.

With `CC1CCCN1c1ccnc(O[C@@H]2CCN(c3cn[nH]c(=O)c3Cl)C2)c1` (stereo partly drawn) [P-0093, 4-chloro-5-((3R)-3-((4-(2-methylpyrrolidin-1-yl)pyridin-2-yl)oxy)pyrrolidin-1-yl)pyridazin-3(2H)-one], the IC50 (in test [1]; at human CD73) was 0.001 to 10 µM in each case.

Regarding `CC1CCCCN1c1ccnc(O[C@@H]2CCN(c3cn[nH]c(=O)c3Cl)C2)c1` (stereo partly drawn) [P-0094, 4-chloro-5-((3R)-3-((4-(2-methylpiperidin-1-yl)pyridin-2-yl)oxy)pyrrolidin-1-yl)pyridazin-3(2H)-one], the IC50 (in test [1]; on human CD73) was 0.001 to 10 µM each time.

With `Cc1nn(CC2(C)COC2)c(C)c1-c1ccnc(O[C@@H]2CCN(c3cn[nH]c(=O)c3Cl)C2)c1` [P-0095, (R)-4-chloro-5-(3-((4-(3,5-dimethyl-1-((3-methyloxetan-3-yl)methyl)-1H-pyrazol-4-yl)pyridin-2-yl)oxy)pyrrolidin-1-yl)pyridazin-3(2H)-one], the 50% inhibitory concentration (IC50) (in test [1]; at human CD73) was 0.001 to 10 µM each time.

As for `Cc1nn(CC2(C)COC2)c(C)c1-c1ccnc(O[C@H]2CN(c3cn[nH]c(=O)c3Cl)C[C@@H]2F)c1` [P-0096, 4-chloro-5-((3S,4S)-3-((4-(3,5-dimethyl-1-((3-methyloxetan-3-yl)methyl)-1H-pyrazol-4-yl)pyridin-2-yl)oxy)-4-fluoropyrrolidin-1-yl)pyridazin-3(2H)-one], the IC50 (in test [1]; on human CD73) was 0.001 to 10 µM throughout.

On to `Cc1nn(C)c(C)c1-c1ccnc(O[C@@H]2CCN(c3cnn(CCCO)c(=O)c3C#N)C2)c1` [P-0097, (R)-2-(3-hydroxypropyl)-3-oxo-5-(3-((4-(1,3,5-trimethyl-1H-pyrazol-4-yl)pyridin-2-yl)oxy)pyrrolidin-1-yl)-2,3-dihydropyridazine-4-carbonitrile], for which the half-inhibitory concentration (IC50) (in test [1]; on human CD73) was 0.001 to 10 µM each time.

Turning to `CC1(C)CC=C(c2ccnc(O[C@@H]3CCN(c4cn[nH]c(=O)c4Cl)C3)c2)CC1` [P-0099, (R)-4-chloro-5-(3-((4-(4,4-dimethylcyclohex-1-en-1-yl)pyridin-2-yl)oxy)pyrrolidin-1-yl)pyridazin-3(2H)-one], the IC50 (in test [1]; at human CD73) was 0.001 to 10 µM in each case.

Consider `N#CC1CC=C(c2ccnc(O[C@@H]3CCN(c4cn[nH]c(=O)c4Cl)C3)c2)CC1` (stereo partly drawn) [P-0100, 4-(2-(((R)-1-(5-chloro-6-oxo-1,6-dihydropyridazin-4-yl)pyrrolidin-3-yl)oxy)pyridin-4-yl)cyclohex-3-ene-1-carbonitrile], for which the half-inhibitory concentration (IC50) (in test [1]; on human CD73) was 0.001 to 10 µM each time.

With `CC(C)c1cc(Nc2cccnc2O[C@@H]2CCN(c3cnn(CCO)c(=O)c3Cl)C2)n(C)n1` [P-0101, (R)-4-chloro-2-(2-hydroxyethyl)-5-(3-((3-((3-isopropyl-1-methyl-1H-pyrazol-5-yl)amino)pyridin-2-yl)oxy)pyrrolidin-1-yl)pyridazin-3(2H)-one], the half-inhibitory concentration (IC50) in test [1] was 0.001 to 10 µM; at human CD73, 10 to 100 µM.

In the case of `O=c1c(Cl)c(N2CC[C@@H](Oc3ncccc3NC3CCC(F)(F)CC3)C2)cnn1CCO` [P-0102, (R)-4-chloro-5-(3-((3-((4,4-difluorocyclohexyl)amino)pyridin-2-yl)oxy)pyrrolidin-1-yl)-2-(2-hydroxyethyl)pyridazin-3(2H)-one], the 50% inhibitory concentration (IC50) (in test [1]; on human CD73) was 0.001 to 10 µM in each case.

Regarding `CC(=O)N1CCN(c2ccnc(O[C@@H]3CCN(c4cn[nH]c(=O)c4Cl)C3)c2)[C@@H](C)C1` [P-0103, 5-((R)-3-((4-((S)-4-acetyl-2-methylpiperazin-1-yl)pyridin-2-yl)oxy)pyrrolidin-1-yl)-4-chloropyridazin-3(2H)-one], the half-inhibitory concentration (IC50) lay in the range of 0.001 to 10 µM in test [1] and 10 to 100 µM on human CD73.

Turning to `CC(=O)N1CCN(c2ccnc(O[C@@H]3CCN(c4cn[nH]c(=O)c4Cl)C3)c2)[C@H](C)C1` [P-0104, 5-((R)-3-((4-((R)-4-acetyl-2-methylpiperazin-1-yl)pyridin-2-yl)oxy)pyrrolidin-1-yl)-4-chloropyridazin-3(2H)-one], the 50% inhibitory concentration (IC50) is 0.001 to 10 µM in test [1] and 10 to 100 µM on human CD73.

Regarding `Cc1ccnc(C(C)C)c1Nc1cccnc1O[C@@H]1CCN(c2cn[nH]c(=O)c2Cl)C1` [P-0105, (R)-4-chloro-5-(3-((3-((2-isopropyl-4-methylpyridin-3-yl)amino)pyridin-2-yl)oxy)pyrrolidin-1-yl)pyridazin-3(2H)-one], the IC50 (in test [1]; on human CD73) was 0.001 to 10 µM throughout.
